Measurements published in patent US8518980B2, “Treatment of Duchenne muscular dystrophy” (Summit Corporation PLC, priority 2006, dated 2013).

Tested on: Utrophin A promoter linked to a luciferase reporter gene (H2K/mdx/Utro A reporter cell line)
Experiment: Luciferase reporter assay (murine H2K cells)
Conditions: for Activity: luciferase level relative to control, final concentration of 10 μM; for activity at 10 µM: Mus musculus, H2K mdx

SMILES	activity at 10 µM [%]	further results
O=C(O)c1cccc(-c2ccc3oc(-c4ccc(Cl)cc4)nc3c2)c1 [Example 313, 3-(2-(4-chlorophenyl)benzo[d]oxazol-5-yl)benzoic acidd]		Activity (Table 1): + (Up to 200% relative to control)
Clc1ccc(-c2nc3cc4c(cc3o2)OCO4)cc1Cl [Example 361, 2-(3,4-chlorophenyl)-5,6-methylenedioxybenzoxazole]		Activity (Table 1): + (Up to 200% relative to control)
CCN(CC)S(=O)(=O)c1ccc2oc(-c3ccc(Cl)cc3)nc2c1 [Example 439, 2-(4′-chlorophenyl)-5-(N,N-diethylsulfonamidyl)-benzoxazole]		Activity (Table 1): + (Up to 200% relative to control)
CC(=O)c1ccc2oc(-c3ccc(Cl)c(Cl)c3)nc2c1 [Example 453, 1-(2′-(3″,4″-Dichlorophenyl)benzo[d]oxazol-5′-yl)ethanone]		Activity (Table 1): ++++ (Above 401% relative to control)
Clc1ccc(SCc2ccc(-c3nc4ccccc4[nH]3)cc2)cc1 [Example 460, 2-(4-((4-chlorophenylthio)methyl)phenyl)-1H-benzo[d]imidazole]	< 200	
Clc1ccc(OCc2nc3ccccc3[nH]2)c(Cl)c1 [Example 461, 2-((2,4-dichlorophenoxy)methyl)-1H-benzo[d]imidazole]	301 to 400	
Cc1ccc2sc(NC(=O)NC(=O)c3c(Cl)cccc3Cl)nc2c1 [Example 462, 2,6-dichloro-N-(5-methylbenzo[d]thiazol-2-ylcarbamoyl)benzamide]	< 200	
c1csc(-c2nc3ccccc3[nH]2)c1 [Example 463, 2-(thiophen-2-yl)-1H-benzo[d]imidazole]	< 200	
O=C(Nc1cccc(-c2nc3ccccc3[nH]2)c1)c1ccccc1 [Example 464, N-(3-(1H-benzo[d]imidazol-2-yl)phenyl)benzamide]	< 200	
Clc1ccc(OCc2nc3ccccc3n2Cc2ccccc2Cl)c(Cl)c1 [Example 465, 1-(2-chlorobenzyl)-2-((2,4-dichlorophenoxy)methyl)-1H-benzo[d]imidazole]	< 200	
Cc1nc2ccc(NC(=O)Nc3ccccc3)cc2o1 [Example 466, 1-(2-methylbenzo[d]oxazol-6-yl)-3-phenylurea]	< 200	
CNC(=O)Nc1ccc2nc(C)oc2c1 [Example 467, 1-methyl-3-(2-methylbenzo[d]oxazol-6-yl)urea]	< 200	
Cc1nc2ccc(NC(=O)NC(=O)c3ccccc3Cl)cc2o1 [Example 468, 2-chloro-N-(2-methylbenzo[d]oxazol-6-ylcarbamoyl)benzamide]	< 200	
Clc1ccc(-c2nc3cc(CN4CCCCC4)ccc3o2)cc1 [Example 469, 2-(4-chlorophenyl)-5-(piperidin-1-ylmethyl)benzo[d]oxazole]	< 200	
COc1ccc(-c2nc3ccccc3[nH]2)cc1 [Example 470, 2-(4-methoxyphenyl)-1H-benzo[d]imidazole]	201 to 300	
c1ccc(OCc2nc3ccccc3[nH]2)cc1 [Example 471, 2-(phenoxymethyl)-1H-benzo[d]imidazole]	201 to 300	
Cn1c(-c2ccc([N+](=O)[O-])cc2)nc2ccccc21 [Example 472, 1-methyl-2-(4-nitrophenyl)-1H-benzo[d]imidazole]	< 200	
COc1ccc(OCc2nc3ccccc3[nH]2)cc1 [Example 473, 2-((4-methoxyphenoxy)methyl)-1H-benzo[d]imidazole]		Activity (Table 2): ++ (Between 201% and 300% relative to control)
Cn1c(COc2ccccc2)nc2ccccc21 [Example 474, 1-methyl-2-(phenoxymethyl)-1H-benzo[d]imidazole]	< 200	
Nc1ccc(-c2nc3ccccc3[nH]2)cc1 [Example 475, 4-(1H-benzo[d]imidazol-2-yl)aniline]	< 200	
Nc1ccc2nc(-c3ccc(-c4nc5ccc(N)cc5[nH]4)cc3)[nH]c2c1 [Example 476, 2,2′-(1,4-phenylene)bis(1H-benzo[d]imidazol-6-amine)]	< 200	

SMILES	activity at 10 µM [%]	further results
O=[N+]([O-])c1ccc(-c2nc3ccccc3o2)cc1 [Example 477, 2-(4-nitrophenyl)benzo[d]oxazole]	< 200	
Nc1ccc(-c2nc3ccccc3o2)cc1 [Example 478, 4-(benzo[d]oxazol-2-yl)aniline]	201 to 300	
Cc1ccc(-c2nc3ccccc3s2)cc1N [Example 479, 5-(benzo[d]thiazol-2-yl)-2-methylaniline]	201 to 300	
Nc1ccc2oc(-c3ccc(Cl)c(Cl)c3)nc2c1 [Example 480, 2-(3,4-dichlorophenyl)benzo[d]oxazol-5-amine]	201 to 300	
CCc1ccc(-c2nc3cc(N)ccc3o2)cc1 [Example 481, 2-(4-ethylphenyl)benzo[d]oxazol-5-amine]	201 to 300	
Cc1cc(C)cc(-c2nc3cc(N)ccc3o2)c1 [Example 482, 2-(3,5-dimethylphenyl)benzo[d]oxazol-5-amine]	< 200	
Oc1ccccc1-c1nc2ccccc2s1 [Example 483, 2-(benzo[d]thiazol-2-yl)phenol]	< 200	
Nc1ccc(-c2nc3ccccc3o2)c(O)c1 [Example 484, 5-amino-2-(benzo[d]oxazol-2-yl)phenol]	201 to 300	
Cc1cc2nc(-c3ccc(N)cc3)oc2cc1C [Example 485, 4-(5,6-dimethylbenzo[d]oxazol-2-yl)aniline]	201 to 300	
CN(C)c1ccc(-c2nc3ccccc3o2)cc1 [Example 486, 4-(benzo[d]oxazol-2-yl)-N,N-dimethylaniline]	< 200	
Nc1ccc2oc(-c3ccc(Cl)cc3)nc2c1 [Example 488, 2-(4-chlorophenyl)benzo[d]oxazol-5-amine]	201 to 300	
Nc1ccc2oc(-c3cccc(Cl)c3)nc2c1 [Example 489, 2-(3-chlorophenyl)benzo[d]oxazol-5-amine]	201 to 300	
Cn1c(-c2ccc(N)cc2)nc2cc(N)ccc21 [Example 490, 2-(4-aminophenyl)-1-methyl-1H-benzo[d]imidazol-5-amine]	< 200	
CN(C)c1ccc(-c2nc3cc(N)ccc3o2)cc1 [Example 491, 2-(4-(dimethylamino)phenyl)benzo[d]oxazol-5-amine]	201 to 300	
O=[N+]([O-])c1ccc2oc(-c3ccccc3)nc2c1 [Example 492, 5-nitro-2-phenylbenzo[d]oxazole]	201 to 300	
O=C(Cc1cccs1)Nc1ccc(-c2nc3ccccc3[nH]2)cc1 [Example 493, N-(4-(1H-benzo[d]imidazol-2-yl)phenyl)-2-(thiophen-2-yl)acetamide]	< 200	
COc1ccc(C(=O)Nc2ccc(-c3nc4ccccc4[nH]3)cc2)cc1OC [Example 494, N-(4-(1H-benzo[d]imidazol-2-yl)phenyl)-3,4-dimethoxybenzamide]	< 200	
Clc1ccc(OCc2nc3ccccc3[nH]2)cc1 [Example 495, 2-((4-chlorophenoxy)methyl)-1H-benzo[d]imidazole]	< 200	
Nc1ccc2oc(-c3ccc(O)cc3)nc2c1 [Example 496, 4-(5-aminobenzo[d]oxazol-2-yl)phenol]	201 to 300	
O=C(Nc1ccc(-c2nc3ccccc3[nH]2)cc1)c1ccccc1 [Example 497, N-(4-(1H-benzo[d]imidazol-2-yl)phenyl)benzamide]	< 200	
